Measurements taken from ChEMBL document CHEMBL1201862, “PubChem BioAssay data set” (2004).
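Each compound was tested at five concentrations against cells in 96-well plates for 48 hours. Abbreviation: GI50, concentration required for 50% inhibition of growth.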 Active and inactive are the calls of the source. Rule as the data show it: active = GI50 up to about 1.1 µM and inactive = higher.

Assays:
Assay in all cases: NCI anticancer screen, dose series, 48 h
SW-620 = test system: SW-620
KM12 = test system: KM12
UACC-257 = test system: UACC-257
EKVX = test system: EKVX
RPMI-8226 = test system: RPMI-8226
SF-295 = test system: SF-295
U-251 = test system: U-251
OVCAR-5 = test system: OVCAR-5
Malme-3M = test system: Malme-3M
HOP-62 = test system: HOP-62
SNB-19 = test system: SNB-19
NCI-H23 = test system: NCI-H23
DMS-114 = test system: DMS-114
SR = test system: SR
IGROV-1 = test system: IGROV-1
M14 = test system: M14
UO-31 = test system: UO-31
LXFL 529 = test system: LXFL 529
SK-OV-3 = test system: SK-OV-3
SN12C = test system: SN12C
HCT-116 = test system: HCT-116
CCRF-CEM = test system: CCRF-CEM
M19-MEL = test system: M19-MEL
SNB-78 = test system: SNB-78
HOP-18 = test system: HOP-18
NCI-H522 = test system: NCI-H522
XF498 = test system: XF498
CAKI-1 = test system: CAKI-1
DLD-1 = test system: DLD-1
OVCAR-4 = test system: OVCAR-4
786-0 = test system: 786-0
MOLT-4 = test system: MOLT-4
A498 = test system: A498
NCI-H460 = test system: NCI-H460
OVCAR-3 = test system: OVCAR-3
SF-268 = test system: SF-268
DMS-273 = test system: DMS-273
HOP-92 = test system: HOP-92
SF-539 = test system: SF-539
SK-MEL-2 = test system: SK-MEL-2
TK-10 = test system: TK-10
K562 = test system: K562
HCT-15 = test system: HCT-15
SK-MEL-5 = test system: SK-MEL-5
RXF 631 = test system: RXF 631
COLO 205 = test system: COLO 205
A549 = test system: A549
LOX IMVI = test system: LOX IMVI
UACC-62 = test system: UACC-62
SK-MEL-28 = test system: SK-MEL-28
KM-20L2 = test system: KM-20L2
HL-60 = test system: HL-60
OVCAR-8 = test system: OVCAR-8
ACHN = test system: ACHN
HCC 2998 = test system: HCC 2998
NCI-H226 = test system: NCI-H226
SNB-75 = test system: SNB-75
HT-29 = test system: HT-29
RXF 393 = test system: RXF 393

SMILES: NC(=O)COC(=O)c1c(Cl)nc2sccn12
- GI50 (SW-620): > 35.3 µM (inactive)
- GI50 (KM12): > 100 µM (inactive)
- GI50 (UACC-257): > 100 µM (inactive)
- GI50 (EKVX): > 100 µM (inactive)
- GI50 (RPMI-8226): > 37 µM (inactive)
- GI50 (SF-295): > 100 µM (inactive)
- GI50 (U-251): > 83 µM (inactive)
- GI50 (OVCAR-5): > 100 µM (inactive)
- GI50 (Malme-3M): > 100 µM (inactive)
- GI50 (HOP-62): > 100 µM (inactive)
- GI50 (SNB-19): > 100 µM (inactive)
- GI50 (NCI-H23): > 100 µM (inactive)
- GI50 (DMS-114): > 52.1 µM (inactive)
- GI50 (SR): 33.8 µM (inactive)
- GI50 (IGROV-1): > 100 µM (inactive)
- GI50 (M14): > 100 µM (inactive)
- GI50 (UO-31): > 100 µM (inactive)
- GI50 (LXFL 529): > 65.5 µM (inactive)
- GI50 (SK-OV-3): > 100 µM (inactive)
- GI50 (SN12C): > 100 µM (inactive)
- GI50 (HCT-116): > 31.6 µM (inactive)
- GI50 (CCRF-CEM): > 31.6 µM (inactive)
- GI50 (M19-MEL): > 84.3 µM (inactive)
- GI50 (SNB-78): > 100 µM (inactive)
- GI50 (HOP-18): > 100 µM (inactive)
- GI50 (NCI-H522): > 100 µM (inactive)
- GI50 (XF498): > 100 µM (inactive)
- GI50 (CAKI-1): > 100 µM (inactive)
- GI50 (DLD-1): > 100 µM (inactive)
- GI50 (OVCAR-4): > 100 µM (inactive)
- GI50 (786-0): 19.1 µM (inactive)
- GI50 (MOLT-4): > 100 µM (inactive)
- GI50 (A498): > 100 µM (inactive)
- GI50 (NCI-H460): > 61.2 µM (inactive)
- GI50 (OVCAR-3): > 43.7 µM (inactive)
- GI50 (SF-268): > 100 µM (inactive)
- GI50 (DMS-273): 81.7 µM (inactive)
- GI50 (HOP-92): > 100 µM (inactive)
- GI50 (SF-539): > 100 µM (inactive)
- GI50 (SK-MEL-2): > 100 µM (inactive)
- GI50 (TK-10): > 100 µM (inactive)
- GI50 (K562): > 63.2 µM (inactive)
- GI50 (HCT-15): > 40.3 µM
- GI50 (SK-MEL-5): > 100 µM (inactive)
- GI50 (RXF 631): > 100 µM (inactive)
- GI50 (COLO 205): > 60.3 µM (inactive)
- GI50 (A549): > 100 µM (inactive)
- GI50 (LOX IMVI): > 75.5 µM (inactive)
- GI50 (UACC-62): > 100 µM (inactive)
- GI50 (SK-MEL-28): > 100 µM (inactive)
- GI50 (KM-20L2): > 100 µM (inactive)
- GI50 (HL-60): > 46 µM (inactive)
- GI50 (OVCAR-8): > 100 µM (inactive)
- GI50 (ACHN): > 100 µM (inactive)
- GI50 (HCC 2998): > 100 µM (inactive)
- GI50 (NCI-H226): > 100 µM (inactive)
- GI50 (SNB-75): > 100 µM (inactive)
- GI50 (HT-29): > 100 µM (inactive)

SMILES: O=C1c2cccc3cccc(c23)C(=O)N1CCCN1CCN(CCCN2C(=O)c3cccc4cccc(c34)C2=O)CC1
- GI50 (SW-620): > 100 µM (inactive)
- GI50 (KM12): > 100 µM (inactive)
- GI50 (UACC-257): > 100 µM (inactive)
- GI50 (EKVX): > 100 µM (inactive)
- GI50 (RPMI-8226): > 100 µM (inactive)
- GI50 (SF-295): > 100 µM (inactive)
- GI50 (U-251): > 100 µM (inactive)
- GI50 (OVCAR-5): > 100 µM (inactive)
- GI50 (Malme-3M): > 100 µM (inactive)
- GI50 (HOP-62): > 100 µM (inactive)
- GI50 (SNB-19): > 100 µM (inactive)
- GI50 (NCI-H23): > 100 µM (inactive)
- GI50 (DMS-114): > 100 µM (inactive)
- GI50 (IGROV-1): > 100 µM (inactive)
- GI50 (M14): > 100 µM (inactive)
- GI50 (UO-31): > 100 µM (inactive)
- GI50 (LXFL 529): > 100 µM (inactive)
- GI50 (SK-OV-3): > 100 µM (inactive)
- GI50 (SN12C): > 100 µM (inactive)
- GI50 (HCT-116): > 100 µM (inactive)
- GI50 (CCRF-CEM): 32.8 µM (inactive)
- GI50 (M19-MEL): > 100 µM (inactive)
- GI50 (SNB-78): > 100 µM (inactive)
- GI50 (HOP-18): > 100 µM (inactive)
- GI50 (RXF 393): > 100 µM (inactive)
- GI50 (XF498): > 100 µM (inactive)
- GI50 (CAKI-1): > 100 µM (inactive)
- GI50 (DLD-1): > 100 µM (inactive)
- GI50 (OVCAR-4): > 100 µM (inactive)
- GI50 (786-0): > 100 µM (inactive)
- GI50 (MOLT-4): > 100 µM (inactive)
- GI50 (A498): > 100 µM (inactive)
- GI50 (NCI-H460): > 100 µM (inactive)
- GI50 (OVCAR-3): > 100 µM (inactive)
- GI50 (DMS-273): > 100 µM (inactive)
- GI50 (HOP-92): > 100 µM (inactive)
- GI50 (SF-539): > 100 µM (inactive)
- GI50 (SK-MEL-2): > 100 µM (inactive)
- GI50 (TK-10): > 100 µM (inactive)
- GI50 (K562): > 100 µM (inactive)
- GI50 (HCT-15): > 100 µM
- GI50 (SK-MEL-5): > 100 µM (inactive)
- GI50 (RXF 631): > 100 µM (inactive)
- GI50 (COLO 205): > 100 µM (inactive)
- GI50 (A549): > 100 µM (inactive)
- GI50 (LOX IMVI): > 100 µM (inactive)
- GI50 (UACC-62): > 100 µM (inactive)
- GI50 (KM-20L2): > 100 µM (inactive)
- GI50 (HL-60): > 100 µM (inactive)
- GI50 (OVCAR-8): > 100 µM (inactive)
- GI50 (ACHN): > 100 µM (inactive)
- GI50 (HCC 2998): > 100 µM (inactive)
- GI50 (NCI-H226): > 100 µM (inactive)
- GI50 (SNB-75): > 100 µM (inactive)
- GI50 (HT-29): > 100 µM (inactive)
